Assay results published in US20160221974A1, “SODIUM CHANNEL MODULATORS FOR THE TREATMENT OF PAIN AND DIABETES” (CHROMOCELL CORPORATION, priority 2013, published 2016).

How the values were obtained:
CYP3A4 = biological target: T1, CYP3A4 (Homo sapiens, UniProt P08684); assay: In-Vitro Cytochrome P450 (CYP450) Inhibition Assay (Vivid CYP450); format: in vitro ADME; settings: CYP3A4 enzyme complex (Vivid CYP450, Invitrogen), 6 μM test concentration
T1 construct: purchased Invitrogen
Procedure: We evaluated interaction of drug candidates with cytochrome P450 enzymes which are a major determinant of drug clearance via oxidative metabolism using a high throughput compatible, fluorescence based CYP450 screening assay (Vivid® CYP450, Invitrogen) according to manufacturer's directions.
In brief, test compounds at four different concentrations (μM—6.0, 2.0, 0.7, 0.2), a positive control (Ketoconazole) and a solvent control were incubated at room temperature in unique wells of a 96-well microtiter plate with CYP3A4 enzyme complex for 20 minutes. A pre-read fluorescence (Ex−485 nm/Em−530 nm) was measured at the start of the incubation using a Tecan Safire^2 microplate reader-monochromator to determine background fluorescence. At the end of the incubation period, enzyme substrate and co-enzyme were added and the reaction was kinetically monitored for 1 hour by measuring fluorescence every minute. Effect of test compounds on inhibition of CYP3A4 metabolism of provided substrate was determined by calculating the ratio of the effective reaction rate in presence of test compound to that in the absence of inhibitor.

NaV1.7 = biological target: T2, NaV1.7 (Homo sapiens, UniProt Q15858); assay: Patchliner Electrophysiological In-Vitro Assay (NaV1.7); format: cell-based; settings: Patchliner patch clamp, HEK293, holding at V1/2
T2 construct: expressed in transfected cells
In short: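 Automated whole-cell patch clamp at room temperature on HEK293 cells stably expressing hNav1.7 with β1 and β2 subunits. Inactivated-state Ki: cells held at their own V1/2, stepped to −120 mV for 5–10 ms, then to Vmax for 10–20 ms, repeated every 10 s; dose-dependent inhibition analysed.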

[1] = test system: Acetic Acid Writhing Model; assay: Writhing Model (Inflammatory Abdominal Pain), rats; format: in vivo; settings: relative to vehicle control, doses of 10 to 30 mg/kg intraperitoneal route
Procedure: The Acetic Acid Writhing Model is associated with visceral pain (abdominal pain, such as stomach pain, and pain caused by, for example, bile duct congestion and kidney stones). A writhing test assesses acute peritoneovisceral pain. After acclimation of 2-3 days, a test compound, positive control or vehicle control was administered by intraperitoneal injection (i.p.) or by oral gavage 15-30 minutes prior to administration of acetic acid. The time of administration of test compound was recorded. For mice: Method A: 0.6% Acetic acid solution in saline was injected i.p. in a volume of 10 ml/kg; Method B: 1.2% Acetic acid solution in saline was injected i.p. in a volume of 5 ml/kg. For rats: 4% acetic acid in saline was injected i.p in a volume of 2 ml/kg at T=0 minutes. Each animal was placed in a clear plastic cage. At T=5 minutes, the number of writhing movements was counted over a 45 minute period. Alternatively, the writhing movements were counted over a 5-minute period and repeated every 5 minutes, starting at T=5 minutes over a 45-minute period. For each compound tested, the individual score was obtained by calculating the accumulated writhing movements for the time period studied. […]

hNaV1.7 = biological target: T3, hNaV1.7 (Homo sapiens, UniProt Q15858); assay: FDSS Membrane Potential In-Vitro Assay; format: cell-based; settings: stimulation with veratridine and scorpion venom, read-out: NaV1.7 IC50
T3 construct: expressed in transfected cells

[2] = test system: Partial Sciatic Nerve Ligation (PSNL) model; assay: Partial Sciatic Nerve Ligation (PSNL) model, behavioral tests; format: in vivo, male Sprague-Dawley rats; settings: 30 mg/kg intraperitoneal, measured 30-60 minutes post dose
From the text: 250-350 g male Sprague-Dawley rats from appropriate animal resources were anesthetized with 2.5% isoflurane. A hind leg was shaved, and the skin was sterilized with 0.5% iodine and 75% alcohol. All surgical instruments were sterilized before surgery and between animals. An incision (1 cm) was made at the middle of the thigh in parallel with the muscle and sciatic nerve distribution. The muscle was exposed and dissected at the joint of two muscles (biceps femoris) indicated by the light colored (white) fascia line. The sciatic nerve was just beneath the muscle and was hooked out using an 18-20 G feeding needle (90 degree curved); the sciatic nerve was flat on the feeding needle and approximately one-half the diameter of the nerve is tightly ligated with 7-0 silk suture. A response of the injured leg twitch indicates the success of ligation. After checking hemostasis, bupivicaine 0.1-0.2 ml (0.125%) was given at the incision area, the muscle and the adjacent fascia are closed with 5-0 absorbable sutures. The skin was sutured with absorbable suture and tissue glue. The control group using sham surgery animals (about 8-10 animals) underwent the same surgical procedure but with no nerve ligation. Animals were returned to their home cage after recovery from anesthesia.
The analgesic effect of the test compound was expressed as a percent recovery (% Recovery) relative to the sham control group baseline and calculated according to the formula:
% Recovery=100%−{[(sham mean−test compound mean)/(sham mean−vehicle mean)]×100%}
wherein “sham mean” refers to average score in the sham-operated group; “test compound mean” refers to average score in the PSNL-group (animals with partial sciatic nerve ligation) or diabetic group (animals treated with STZ) treated with a test compound; “vehicle mean” refers to average score in the PSNL-group or diabetic group treated with vehicle only. The above formula was used to obtain data for the following in vivo behavioral tests.
The following behavioral tests were conducted (i.e., plantar test, paw pressure test, and von Frey test) started on day 3 and thereafter once weekly following surgery or use of a diabetic inducer. […]
Rats were placed on the glass surface of a thermal testing apparatus (Model 336, IITC/Life Science Instruments, Woodland Hills, Calif.) and were allowed to acclimate for 10 min before testing on the glass surface at room temperature. […] The paw withdrawal latency was recorded by a digital timer. The thermal threshold was determined as the mean withdrawal latency from two to three consecutive trials of both hindpaws. […]
Animals were placed under clear plastic boxes above a wire mesh floor, which allowed full access to the paws. […] Mechanical paw withdrawal thresholds (PWTs) were measured with the up-down testing paradigm. […]

T3 sequence (Q15858 whole entry): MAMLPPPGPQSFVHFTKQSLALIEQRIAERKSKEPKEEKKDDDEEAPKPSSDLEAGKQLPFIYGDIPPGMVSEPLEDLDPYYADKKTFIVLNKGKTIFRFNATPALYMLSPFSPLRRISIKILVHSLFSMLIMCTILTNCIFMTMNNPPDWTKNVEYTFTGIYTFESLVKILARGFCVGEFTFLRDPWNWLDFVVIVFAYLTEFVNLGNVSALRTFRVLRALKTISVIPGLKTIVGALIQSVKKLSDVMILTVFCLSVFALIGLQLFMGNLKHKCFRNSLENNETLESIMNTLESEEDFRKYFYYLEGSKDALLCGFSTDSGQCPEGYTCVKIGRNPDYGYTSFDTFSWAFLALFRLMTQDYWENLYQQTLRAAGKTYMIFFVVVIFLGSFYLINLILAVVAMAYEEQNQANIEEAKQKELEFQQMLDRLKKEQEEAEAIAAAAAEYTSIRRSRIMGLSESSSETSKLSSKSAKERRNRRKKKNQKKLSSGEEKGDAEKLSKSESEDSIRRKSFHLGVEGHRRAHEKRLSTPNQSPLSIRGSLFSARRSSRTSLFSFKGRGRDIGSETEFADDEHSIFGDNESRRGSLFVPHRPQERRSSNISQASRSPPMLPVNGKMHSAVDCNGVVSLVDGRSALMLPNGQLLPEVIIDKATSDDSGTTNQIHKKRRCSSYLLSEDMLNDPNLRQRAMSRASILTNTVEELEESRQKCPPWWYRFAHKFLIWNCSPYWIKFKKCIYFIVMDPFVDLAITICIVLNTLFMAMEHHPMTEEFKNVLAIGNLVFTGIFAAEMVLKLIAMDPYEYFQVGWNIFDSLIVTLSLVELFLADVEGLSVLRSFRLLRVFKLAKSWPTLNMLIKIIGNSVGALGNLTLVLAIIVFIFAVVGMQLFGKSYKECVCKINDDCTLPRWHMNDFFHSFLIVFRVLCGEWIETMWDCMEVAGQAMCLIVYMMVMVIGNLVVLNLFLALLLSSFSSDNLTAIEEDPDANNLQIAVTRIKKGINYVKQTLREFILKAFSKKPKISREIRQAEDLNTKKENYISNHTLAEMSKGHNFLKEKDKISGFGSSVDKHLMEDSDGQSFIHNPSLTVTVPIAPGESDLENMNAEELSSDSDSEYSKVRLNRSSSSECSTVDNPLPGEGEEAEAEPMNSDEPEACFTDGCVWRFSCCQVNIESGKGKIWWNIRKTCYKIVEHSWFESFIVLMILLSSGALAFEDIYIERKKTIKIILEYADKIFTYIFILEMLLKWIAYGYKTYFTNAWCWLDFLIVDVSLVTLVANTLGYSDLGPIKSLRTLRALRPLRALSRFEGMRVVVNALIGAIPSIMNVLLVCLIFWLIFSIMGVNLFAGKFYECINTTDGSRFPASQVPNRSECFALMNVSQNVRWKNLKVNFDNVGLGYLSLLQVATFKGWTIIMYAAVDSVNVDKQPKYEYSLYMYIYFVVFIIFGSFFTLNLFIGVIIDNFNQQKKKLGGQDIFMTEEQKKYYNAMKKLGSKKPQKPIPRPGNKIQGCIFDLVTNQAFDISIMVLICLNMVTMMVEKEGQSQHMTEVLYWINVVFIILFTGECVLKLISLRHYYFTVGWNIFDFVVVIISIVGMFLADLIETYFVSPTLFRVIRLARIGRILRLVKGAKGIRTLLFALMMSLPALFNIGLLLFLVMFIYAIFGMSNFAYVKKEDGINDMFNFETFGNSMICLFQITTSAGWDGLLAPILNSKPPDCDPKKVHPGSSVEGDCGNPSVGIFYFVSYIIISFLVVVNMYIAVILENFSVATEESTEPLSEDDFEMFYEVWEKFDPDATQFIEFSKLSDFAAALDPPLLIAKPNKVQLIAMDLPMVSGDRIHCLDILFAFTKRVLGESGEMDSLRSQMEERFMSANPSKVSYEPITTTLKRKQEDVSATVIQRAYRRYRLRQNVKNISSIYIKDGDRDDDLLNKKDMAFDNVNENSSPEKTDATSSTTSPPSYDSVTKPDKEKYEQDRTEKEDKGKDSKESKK
T3 sequence (Q07699 19-218 partner): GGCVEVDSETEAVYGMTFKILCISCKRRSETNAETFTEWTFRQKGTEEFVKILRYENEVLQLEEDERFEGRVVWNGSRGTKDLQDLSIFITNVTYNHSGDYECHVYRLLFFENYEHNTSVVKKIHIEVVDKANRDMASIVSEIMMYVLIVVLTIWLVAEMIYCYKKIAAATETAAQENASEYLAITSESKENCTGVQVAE
T3 sequence (O60939 30-215 partner): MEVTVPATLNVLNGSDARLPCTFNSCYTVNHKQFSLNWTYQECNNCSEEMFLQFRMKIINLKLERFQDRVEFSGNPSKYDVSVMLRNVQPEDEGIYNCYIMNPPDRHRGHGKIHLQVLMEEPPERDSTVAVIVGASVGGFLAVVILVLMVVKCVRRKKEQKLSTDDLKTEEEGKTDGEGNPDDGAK
T2 sequence (Q15858 whole entry): as the sequence (Q15858 whole entry) above
T2 sequence (Q07699 19-218 partner): as the sequence (Q07699 19-218 partner) above
T2 sequence (O60939 30-215 partner): as the sequence (O60939 30-215 partner) above
T1 sequence (P08684 2-503 limits assumed): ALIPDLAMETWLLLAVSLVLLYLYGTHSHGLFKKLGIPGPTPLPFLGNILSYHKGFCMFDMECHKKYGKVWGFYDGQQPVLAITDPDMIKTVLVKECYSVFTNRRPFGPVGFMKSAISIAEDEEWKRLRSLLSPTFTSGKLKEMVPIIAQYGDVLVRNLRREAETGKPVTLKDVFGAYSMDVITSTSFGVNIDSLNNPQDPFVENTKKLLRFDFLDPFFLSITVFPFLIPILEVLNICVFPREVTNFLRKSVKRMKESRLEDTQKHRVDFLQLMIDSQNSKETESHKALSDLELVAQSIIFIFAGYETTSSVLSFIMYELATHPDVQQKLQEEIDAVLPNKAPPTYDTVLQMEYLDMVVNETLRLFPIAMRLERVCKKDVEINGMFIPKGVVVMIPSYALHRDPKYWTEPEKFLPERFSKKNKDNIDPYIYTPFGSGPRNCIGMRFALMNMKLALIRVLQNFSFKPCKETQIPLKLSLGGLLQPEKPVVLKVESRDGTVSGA

In the case of O=C(O)CNC(=O)c1cc(-c2cc(Cl)ccc2Oc2cc(F)c(S(=O)(=O)Nc3ncns3)cc2Cl)ccn1 [Compound 2, 2-(4-(2-(4-(N-(1,2,4-thiadiazol-5-yl)sulfamoyl)-2-chloro-5-fluorophenoxy)-5-chlorophenyl)picolinamido)acetic acid], the inhibition at 1 hour, 6 µM (CYP3A4) is reported as 50 to 100%, the IC50 (NaV1.7) is reported as < 100 nM and the “reduction in pain (writhing)” value [1] is reported as 48-58%. For the same molecule, the IC50 (hNaV1.7) was < 130 nM and the “effect in the tactile allodynia test” value [2] was “no significant effect”.
